# Legend:
# [1] = system: P3x63Ag8 mouse myeloma cells; assay: Invasion of P3x63Ag8 myeloma cells through FN-coated filters; type: cell-based; conditions: 16 hr
# Method: FIG. 7A-B. S1ED^214-236, specific for VEGFR2 coupling to VLA-4, blocks myeloma cell invasion but not adhesion. (FIG. 7A) P3x63Ag8 mouse myeloma cells are plating on the VLA-4 ligand FN in the presence or absence of 30 uM S1ED^210-233 (SEQ ID No: 4) or S1ED^214-236 (SEQ ID No: 7) for 2.5 hr. (FIG. 7B) P3x63Ag8 myeloma cells are plated on FN-coated filters in the presence of HPSE inhibitor OGT2115, VLA-4 blocking antibody P1H4, VEGFR2 inhibitor Vandetanib or S1ED^210-233 or S1ED^214-236 and allowed to migrate through the filter for 16 hr. Small black dots are the pores in the filter.
# The bottom chambers of Transwell filter chambers (8 μm pores; Corning) were coated with 40 μg/ml of FN. Cells (5×10^5 in 0.2 ml plating medium) were placed in the upper chamber and incubated for 16 hr at 37° C. in the CO2 incubator. After incubation, cells in the upper chamber were removed and cells on the bottom side of the filter were fixed in 4% paraformaldehyde (PFA) and stained with 0.1% Crystal Violet before imaging. Cells from at least five random fields were counted.
# HMEC-1 cells = assay: In vitro tube formation assay of HMEC-1 cells on Matrigel; type: cell-based; conditions: 24 hrs, 10 μM peptides
# Method: FIGS. 8A-H. HPSE mediated the Sdc1-coupled VEGFR2 complex in endothelial cells induces angiogenesis. (FIG. 8A) Lysates from HPSE^low, HPSE^high and HMEC-1 cells are probed by immunoblotting for expression of HPSE. (FIG. 8B) HMEC-1 cells were seeded at equal density and grown in serum-free media for 24 hr in the absence or presence of 125 μg/ml of the HPSE inhibitor SST0001. After 24 hr, conditioned media were harvested, and the level of shed Sdc1 in the conditioned medium from each condition was determined by immunoblotting. (FIG. 8C) HMEC-1 cell lysate was incubated overnight with glutathione beads coated with GST or GST-S1ED. Capture of VLA-4 or VEGFR2 was detected by immunoblotting. (FIG. 8D) HMEC-1 cells were plated on IIICS for 3 hr and double stained for VLA-4 and Sdc1, VEGFR2 and Sdc1, or VLA-4 and VEGFR2. (FIG. 8E) HMEC-1 cells were treated with DMSO, VLA-4 blocking antibody P1H4, β1-integrin blocking antibody mAb13, 10 μg/ml MMP9 blocking antibody, 125 μg/ml HPSE inhibitor SST0001, Vandetanib, VEGFR2 blocking antibody, 30 μM S1ED^210-233 or 30 μM S1ED^214-240 and then plated on IIICS. Images were taken from random field with 200× magnification for counting attached and spread cells. (FIG. 8F) HMEC-1 cells were plated on IIICS in the presence of 10 μM of S1ED^210-236, S1ED^210-233, S1ED^215-240, and S1ED^214-240. Lysates were probed on immunoblots with antibodies against pY^1175 VEGFR2 and VEGFR2. (FIG. 8G) Transwell migration assays towards IIICS (for 16 hr) were performed for HMEC-1 cells in the presence of P1H4, SST0001, Anti-MMP9, Vandetanib, S1ED^210-236, S1ED^210-233, and S1ED^214-240. Images were taken from random field with 200× magnification for counting migrated cells. (FIG. 8H) A 96-well plate coated with 50 μl Matrigel containing 100 μg/ml IIICS per well was solidified at 37° C. for 2 hrs. HMEC-1 cells (2.5×10^4 cells/well) were seeded into the plate and cultured in media containing VEGF, SST0001, 10 μM of S1ED^210-236, S1ED^210-233, S1ED^215-240, and S1ED^214-240 for 24 hrs. Enclosed capillary networks of tubes were taken from random field with 200× magnification.
# CAG myeloma cells [2] = assay: Cell spreading / attachment assay of CAG myeloma cells on FN or VCAM-1; type: cell-based, human; conditions: 20 ng/ml VEGF
# CAG myeloma cells [3] = assay: as above; type: cell-based, human; conditions: heparinase III pre-treatment before plating on FN and VCAM-1
# Method: Nitrocellulose-coated slides were coated for 2 hr at 37° C. with 40 μg/ml FN (kindly provided by Dr. Donna Peters, University of Wisconsin-Madison) or 5 μg/ml recombinant VCAM-1/Fc chimera (R&D Systems) in calcium and magnesium-free PBS (CMF-PBS; 135 mM NaCl, 2.7 mM KCl, 10.2 mM Na2HPO4-7H20 and 1.75 mM KH2PO4, pH7.4). Slides were blocked for 1 hr at 37° C. with RPMI 1640 containing 1% heat-denatured BSA (plating medium). Cells in plating medium were allowed to attach and spread for 2.5 hr at 37° C. Slides were fixed in 4% EM grade paraformaldehyde (Electron Microscopy Sciences) in CMF-PBS and labeled for 30 min in 0.13 μM rhodamine phalloidin (Invitrogen) in CMF-PBS. Coverslips were mounted in non-fluorescing mounting medium (Immumount; Thermo Shandon) and allowed to dry. All images were acquired with a Nikon Microphot FX microscope using a 20× objective (Nikon; Ex 541-551, DM 580, Barrier 590), Photometric CoolSnap ES camera, and version 7.7.3.0 Metamorph© Imaging software (Molecular Devices). All images represent results from triplicate wells and at least three independent experiments.
molecule,measurement,setting,value
"O=C(O)Cc1ccc2oc(-c3ccc(NC(=O)/C=C/c4ccc(Br)cc4)c(F)c3)nc2c1 [OGT2115, reference compound]",invasion / migration of P3X cells through FN-coated filters,[1],Cell migration is only observed in the untreated controls
VEGF [reference compound],tube formation by HMEC-1 cells,HMEC-1 cells,not enhanced by VEGF
same,induction of HPSE^low cell spreading by VEGF,CAG myeloma cells [2],failed to induce spreading of the cells
"HPIII: heparinase III, a bacterial enzyme that completely degrades the HS (protein, UniProt Q59289 25-659, looked up) Heparin-sulfate lyase: QSSSITRKDFDHINLEYSGLEKVNKAVAAGNYDDAAKALLAYYREKSKAREPDFSNAEKPADIRQPIDKVTREMADKALVHQFQPHKGYGYFDYGKDINWQMWPVKDNEVRWQLHRVKWWQAMALVYHATGDEKYAREWVYQYSDWARKNPLGLSQDNDKFVWRPLEVSDRVQSLPPTFSLFVNSPAFTPAFLMEFLNSYHQQADYLSTHYAEQGNHRLFEAQRNLFAGVSFPEFKDSPRWRQTGISVLNTEIKKQVYADGMQFELSPIYHVAAIDIFLKAYGSAKRVNLEKEFPQSYVQTVENMIMALISISLPDYNTPMFGDSWITDKNFRMAQFASWARVFPANQAIKYFATDGKQGKAPNFLSKALSNAGFYTFRSGWDKNATVMVLKASPPGEFHAQPDNGTFELFIKGRNFTPDAGVFVYSGDEAIMKLRNWYRQTRIHSTLTLDNQNMVITKARQNKWETGNNLDVLTYTNPSYPNLDHQRSVLFINKKYFLVIDRAIGEATGNLGVHWQLKEDSNPVFDKTKNRVYTTYRDGNNLMIQSLNADRTSLNEEEGKVSYVYNKELKRPAFVFEKPKKNAGTQNFVSIVYPYDGQKAPEISIRENKGNDFEKGKLNLTLTINGKQQLVLVP",induction of HPSE^low cell spreading,CAG myeloma cells [3],induces spreading of HPSE^low cells comparable to that observed for HPSE^high cells

# Source: patent publication US9878007B2, “Syndecan peptides and polypeptides as inhibitors of vascular endothelial growth factor receptor-2 (VEGFR2) and very late antigen-4 (VLA-4)” (Wisconsin Alumni Research Foundation, priority 2015, dated 2018)
